Assay results taken from the supplement of paper PMC10307832.

What was measured:
Test in all cases: relative viability (nuclei count vs DMSO), 5 days (fraction); higher = more cells survive
[1] = compound: CS(=O)(=O)c1ccc(-c2cnc(N)c(C(=O)Nc3ccccc3)n2)cc1 [VE-821] + Cc1cc(Nc2cc(N3CCN(C)CC3)nc(Sc3ccc(NC(=O)C4CC4)cc3)n2)n[nH]1 [Tozasertib] (partner 0.1 µM)
Summary of the method: (§1)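 Relative viability equals treated-well nuclei counts divided by vehicle-well nuclei counts. Counts came from 4× images of lung cancer cell lines grown in 1536-well plates for 5 days after pin-tool dosing on the day after seeding. Dosing used one drug alone or a fixed anchor-drug dose plus five library-drug doses (not always all listed) in √10 steps, and values are medians of duplicate plates.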

[2] = compound: N#CC[C@H](C1CCCC1)n1cc(-c2ncnc3[nH]ccc23)cn1 [Ruxolitinib] + COc1cc2c(Oc3ccc(NC(=O)C4(C(=O)Nc5ccc(F)cc5)CC4)cc3F)ccnc2cc1OCCCN1CCOCC1 [Foretinib] (partner 0.25 µM)
Summary of the method: as §1

[3] = compound: CS(=O)(=O)c1ccc(-c2cnc(N)c(C(=O)Nc3ccccc3)n2)cc1 [VE-821] + COc1cc2c(Oc3ccc(NC(=O)C4(C(=O)Nc5ccc(F)cc5)CC4)cc3F)ccnc2cc1OCCCN1CCOCC1 [Foretinib] (partner 0.25 µM)
Summary of the method: as §1

[4] = compound: CS(=O)(=O)c1ccc(-c2cnc(N)c(C(=O)Nc3ccccc3)n2)cc1 [VE-821] + CC(=O)Nc1cccc(-n2c(=O)n(C3CC3)c(=O)c3c(Nc4ccc(I)cc4F)n(C)c(=O)c(C)c32)c1 [Trametinib] (partner 0.02 µM)
Summary of the method: as §1

Cell Line | relative viability ([1]; first compound 0.08 µM) | relative viability ([1]; first compound 0.253 µM) | relative viability ([1]; first compound 0.8 µM) | relative viability ([1]; first compound 2.53 µM) | relative viability ([1]; first compound 8 µM) | relative viability ([2]; first compound 0.08 µM) | relative viability ([2]; first compound 0.253 µM) | relative viability ([2]; first compound 0.8 µM) | relative viability ([2]; first compound 2.53 µM) | relative viability ([2]; first compound 8 µM) | relative viability ([3]; first compound 0.08 µM) | relative viability ([3]; first compound 0.253 µM) | relative viability ([3]; first compound 0.8 µM) | relative viability ([3]; first compound 2.53 µM) | relative viability ([3]; first compound 8 µM) | relative viability ([4]; first compound 0.08 µM) | relative viability ([4]; first compound 0.253 µM) | relative viability ([4]; first compound 0.8 µM) | relative viability ([4]; first compound 2.53 µM) | relative viability ([4]; first compound 8 µM)
LK-2 | 0.172 | 0.174 | 0.161 | 0.197 | 0.202 | 1.15 | 1.45 | 1.46 | 1.29 | 1.34 | 1.5 | 1.46 | 1.05 | 1.37 | 1.14 | 1.02 | 0.775 | 0.734 | 0.897 | 0.818
HCC-366 | 0.0768 | 0.0713 | 0.0434 | 0.0568 | 0.0298 | 0.934 | 0.855 | 1.07 | 0.915 | 0.744 | 0.942 | 0.922 | 0.815 | 0.271 | 0.153 | 0.38 | 0.381 | 0.293 | 0.13 | 0.0642
NCI-H441 | 0.78 | 0.399 | 0.666 | 0.564 | 0.511 | 1.07 | 0.915 | 0.997 | 0.787 | 0.855 | 1.36 | 1.04 | 1.19 | 1.04 | 0.928 | 0.547 | 0.516 | 0.371 | 0.57 | 0.38
COR-L 105 | 0.37 | 0.373 | 0.374 | 0.284 | 0.333 | 0.927 | 1.17 | 0.994 | 0.718 | 0.853 | 1.06 | 1.15 | 0.937 | 0.731 | 0.759 | 0.463 | 0.412 | 0.483 | 0.4 | 0.449
